Reference: US10292965B2, “Nintedanib diethanesulfonate salt crystal and preparation method and use thereof” (Chia Tai Tianqing Pharmaceutical Group Co., Ltd., priority 2015, dated 2019)

Legend:
Type in all cases: physicochemical
[1] = Stability test (influence factors: high-humidity, light irradiation, accelerated test); sample purity measured; conditions: for purity of the sample, accelerated test: accelerated test 40° C.±2° C., relative humidity 75%±5%; for purity of the sample, initial value: day 0, initial value; for purity of the sample, high-humidity test: high-humidity 25° C., 92.5% RH; for purity of the sample, light irradiation test: light irradiation 10000 lx±500 lx
Description: The tests last for 10 days. Samples were taken on days 0, 5 and 10 to measure the purities of the samples so as to determine their stabilities.

[2] = Intrinsic dissolution rate, rotating disk method (USP Chapter 1087); conditions: 700 ml 0.1 mol/L hydrochloric acid, 300 rpm, 37° C., detection 287 nm
Method: Intrinsic dissolution rates of the crystalline Form A of nintedanib diethanesulfonate prepared in Example 1 and the crystalline form of nintedanib diethanesulfonate prepared according to WO2012068441 (the existing crystal) were determined by using the intrinsic dissolution rotating disk method in Chapter 1087 of the U.S. Pharmacopeia, and the results are shown in Table 2. Dissolution Medium: 700 ml of 0.1 mol/L hydrochloric acid solution, Rotating Speed: 300 rpm, Detection Wavelength: 287 nm, Medium Temperature: 37° C.

[3] = Moisture content after storage under high humidity and accelerated test conditions; conditions: high humidity (25° C., 92.5% RH) and accelerated test conditions (40±2° C., 75%±5% RH) for 10 days

SMILES	purity of the sample, accelerated test ([1]; day 10) [%]	purity of the sample, initial value [1] [%]	purity of the sample, high-humidity test ([1]; day 5) [%]	purity of the sample, high-humidity test ([1]; day 10) [%]	purity of the sample, light irradiation test ([1]; day 5) [%]	purity of the sample, light irradiation test ([1]; day 10) [%]	Average dissolution rate [2] [µg/mL/min]	Maximum dissolution rate [2] [µg/mL/min]	character (appearance) after storage [3]	moisture content ([3]; listed as crystalline form of nintedanib diethanesulfonate prepared according to WO2012068)	moisture content ([3]; listed as crystalline Form A of nintedanib diethanesulfonate)
CCS(=O)(=O)O.COC(=O)c1ccc2c(c1)NC(=O)/C2=C(\Nc1ccc(N(C)C(=O)CN2CCN(C)CC2)cc1)c1ccccc1 [The existing crystal, nintedanib diethanesulfonate]	95.10	99.78	99.72	99.67	99.73	99.19	13.373	14.689	absorbs moisture to become clumping	increases significantly	
CCS(=O)(=O)O.COC(=O)c1ccc2c(c1)NC(=O)/C2=C(\Nc1ccc(N(C)C(=O)CN2CCN(C)CC2)cc1)c1ccccc1 [The crystalline Form A, nintedanib diethanesulfonate]	99.77	99.80	99.78	99.79	99.79	99.70	22.508	23.344			essentially unchanged
